# Measured values taken from patent EP0048614B1, “1-N-acylated and 1-N-alkylated derivatives of 4-0-substituted -2-deoxystreptamine aminoglycosides” (ELI LILLY AND COMPANY, priority 1980, dated 1982).
# Where “and” joins values, the source holds several entries; their conditions need not be identical. Identical values can stand only once. Like-named read-outs stand apart in the source and are kept apart here.
# Tests used:
# B. subtilis X12 = test: Bioautography of thin layer chromatography plate; format: cell-based; conditions: TLC plate of the reaction mixture against B. subtilis X12
# Protocol: Apramycin (54 mg, 0.1 mmol) was dissolved in water (1 ml). Zinc acetate dihydrate (100 mg, 0.4 mmol) was added to this solution and the mixture was briefly sonicated to disperse crystals of zinc acetate. The ' mixture was diluted with dimethylformamide (5 ml), 1-iodo-n-butane (0.115 ml), 1 mmol) was added and this reaction mixture was stirred at room temperature for 4 days.
# [1] = test system: Staphylococcus aureus 3055; test: Subcutaneous therapy of experimental bacterial infection in mice (ED50); format: in vivo; conditions: Staphylococcus aureus, 3055, sc
# Protocol: Table II illustrates the effective dose (ED50, the effective dose to protect 50 percent of the test animals) for representative compounds of this invention against an experimental bacterial infection in mice.
# The ED50 values were determined as described by W. E. Wick et al., Journal of Bacteriology, 81 [No. 2], 233-235 (1961).
# [2] = test system: Pseudomonas aeruginosa X528; test: MIC, standard agar dilution test; format: cell-based; conditions: Pseudomonas aeruginosa X528; agar dilution; read-out: Minimum Inhibitory Concentration
# Description: (§1) The antibacterial activity of the deprotected compounds of this invention is illustrated by the following in vitro and in vivo test data obtained with representative compounds. In Table I, the minimum inhibitory concentration (MIC) for representative compounds against a wide range of gram-positive and gram-negative bacteria is presented. The MIC values were obtained by the standard agar dilution test.
# Proteus morganii PR15 = test: MIC, standard agar dilution test; format: cell-based; conditions: Morganella morganii; Proteus morganii PR15; agar dilution; read-out: Minimum Inhibitory Concentration
# Description: as §1
# [3] = test system: Staphylococcus epidermidis EPI1; test: MIC, standard agar dilution test; format: cell-based; conditions: Staphylococcus epidermidis, EPI1; read-out: Minimum Inhibitory Concentration
# Description: as §1
# [4] = test system: Pseudomonas aeruginosa X239; test: MIC, standard agar dilution test; format: cell-based; conditions: Pseudomonas aeruginosa X239; agar dilution; read-out: Minimum Inhibitory Concentration
# Description: as §1
# [5] = test system: Staphylococcus aureus X400; test: MIC, standard agar dilution test; format: cell-based
# Description: as §1
# Serratia marcescens X99 = test: MIC, standard agar dilution test; format: cell-based
# Description: as §1
# Enterobacter cloacae EB5 = test: MIC, standard agar dilution test; format: cell-based; conditions: Enterobacter cloacae EB5; agar dilution; read-out: Minimum Inhibitory Concentration
# Description: as §1
# [6] = test system: Streptococcus pneumoniae Park I; test: MIC, standard agar dilution test; format: cell-based; conditions: Streptococcus pneumoniae; read-out: Minimum Inhibitory Concentration
# Description: as §1
# [7] = test system: Enterobacter aerogenes X68; test: MIC, standard agar dilution test; format: cell-based
# Description: as §1
# Escherichia coli N10 = test: MIC, standard agar dilution test; format: cell-based; conditions: agar dilution
# Description: as §1
# [8] = test system: Salmonella typhimurium 1335; test: MIC, standard agar dilution test; format: cell-based; conditions: Salmonella enterica; Salmonella typhimurium 1335; agar dilution; read-out: Minimum Inhibitory Concentration
# Description: as §1
# [9] = test system: Salmonella heidelberg X514; test: MIC, standard agar dilution test; format: cell-based; conditions: Salmonella enterica; Salmonella heidelberg X514; agar dilution; read-out: Minimum Inhibitory Concentration
# Description: as §1
# [10] = test system: Bordetella bronchiseptica 16; test: MIC, standard agar dilution test; format: cell-based; conditions: Bordetella bronchiseptica 16; agar dilution; read-out: Minimum Inhibitory Concentration
# Description: as §1
# Escherichia coli EC14 = test: MIC, standard agar dilution test; format: cell-based; conditions: Escherichia coli EC14; agar dilution; read-out: Minimum Inhibitory Concentration
# Description: as §1
# Escherichia coli TEM = test: MIC, standard agar dilution test; format: cell-based; conditions: read-out: Minimum Inhibitory Concentration
# Description: as §1
# [11] = test system: Klebsiella pneumoniae X26; test: MIC, standard agar dilution test; format: cell-based; conditions: Klebsiella pneumoniae X26; agar dilution; read-out: Minimum Inhibitory Concentration
# Description: as §1
# [12] = test system: Streptococcus pyogenes C203; test: MIC, standard agar dilution test; format: cell-based; conditions: Streptococcus pyogenes C203; agar dilution; read-out: Minimum Inhibitory Concentration
# Description: as §1
# [13] = test system: Citrobacter freundii CF17; test: MIC, standard agar dilution test; format: cell-based; conditions: Citrobacter freundii CF17; agar dilution; read-out: Minimum Inhibitory Concentration
# Description: as §1
# [14] = test system: Hemophilus influenzae C.L.; test: MIC, standard agar dilution test; format: cell-based; conditions: Hemophilus influenzae C.L.
# Description: as §1
# [15] = test system: Pseudomonas aeruginosa Ps18; test: MIC, standard agar dilution test; format: cell-based; conditions: Pseudomonas aeruginosa Ps18; agar dilution; read-out: Minimum Inhibitory Concentration
# Description: as §1
# [16] = test system: Enterobacter cloacae 265A; test: MIC, standard agar dilution test; format: cell-based; conditions: Enterobacter cloacae 265A; agar dilution; read-out: Minimum Inhibitory Concentration
# Description: as §1
# [17] = test system: Staphylococcus aureus X1.1; test: MIC, standard agar dilution test; format: cell-based; conditions: Staphylococcus aureus X1.1, agar dilution
# Description: as §1
# Shigella sonnei N9 = test: MIC, standard agar dilution test; format: cell-based; conditions: read-out: Minimum Inhibitory Concentration
# Description: as §1
# Proteus rettgeri C24 = test: MIC, standard agar dilution test; format: cell-based; conditions: Providencia rettgeri; Proteus rettgeri C24; agar dilution; read-out: Minimum Inhibitory Concentration
# Description: as §1
# [18] = test system: Streptococcus group D 9960; test: MIC, standard agar dilution test; format: cell-based; conditions: D9960; Streptococcus group D 9960; agar dilution; read-out: Minimum Inhibitory Concentration
# Description: as §1
# Serratia marcescens SE3 = test: MIC, standard agar dilution test; format: cell-based; conditions: Serratia marcescens SE3; agar dilution; read-out: Minimum Inhibitory Concentration
# Description: as §1
# [19] = test system: Enterobacter aerogenes EB17; test: MIC, standard agar dilution test; format: cell-based; conditions: Klebsiella aerogenes; Enterobacter aerogenes EB17; agar dilution; read-out: Minimum Inhibitory Concentration
# Description: as §1
# Proteus rettgeri PR7 = test: MIC, standard agar dilution test; format: cell-based
# Description: as §1
# [20] = test system: Staphylococcus aureus S13E; test: MIC, standard agar dilution test; format: cell-based; conditions: read-out: Minimum Inhibitory Concentration
# Description: as §1
# [21] = test system: Enterobacter aerogenes C32; test: MIC, standard agar dilution test; format: cell-based; conditions: Klebsiella aerogenes; Enterobacter aerogenes C32; agar dilution; read-out: Minimum Inhibitory Concentration
# Description: as §1
# [22] = test system: Staphylococcus epidermidis EPI2; test: MIC, standard agar dilution test; format: cell-based; conditions: Staphylococcus epidermidis EPI2; agar dilution; read-out: Minimum Inhibitory Concentration
# Description: as §1
# Hemophilus influenzae 76 = test: MIC, standard agar dilution test; format: cell-based
# Description: as §1
# Proteus inconstans PR33 = test: MIC, standard agar dilution test; format: cell-based; conditions: Providencia alcalifaciens; Proteus inconstans PR33; agar dilution; read-out: Minimum Inhibitory Concentration
# Description: as §1
# [23] = test system: Streptococcus group D X66; test: MIC, standard agar dilution test; format: cell-based; conditions: DX66; Streptococcus group D X66; agar dilution; read-out: Minimum Inhibitory Concentration
# Description: as §1
# [24] = test system: Staphylococcus aureus V41; test: MIC, standard agar dilution test; format: cell-based; conditions: Staphylococcus aureus V41; agar dilution; read-out: Minimum Inhibitory Concentration
# Description: as §1
# [25] = test system: Klebsiella pneumoniae KAE; test: MIC, standard agar dilution test; format: cell-based; conditions: Klebsiella pneumoniae KAE; agar dilution; read-out: Minimum Inhibitory Concentration
# Description: as §1
# Escherichia coli X563 = test: Standard disc-plate method, zone of inhibition against apramycin-resistant strain; format: cell-based; conditions: apramycin-resistant E. coli X563, one value for each of two test runs per compound; for Zone of Inhibition (diameter in mm): 15 mcg/disc
# Description: Table III, shown below, illustrates the in vitro activity of 1-N-(S-y-amino-a-hydroxybutyryl)apramycin, 1-N-(RS-y-amino-a-hydroxybutyryl)apramycin, and 1-N-(S-y-amino-a-hydroxybutyryl)nebramine against an apramycin resistant strain of E. coli. The results below were obtained using the standard disc-plate method. The numerical values are the diameters in millimeters of the zones of inhibition observed against this bacterium. Compounds substituted with the y-amino-a-hydroxybutyryl and analogous side chains are useful in treating infections caused by apramycin resistant bacteria such as the one above.
# The test organism (E. coli X563) used in the experiments summarized in Table III is resistant to apramycin due to a 3-N-acetyltransferase which enzymatically inactivates apramycin.
compound,measurement,setting,value
C=CCNC1CC(N)C(OC2OC3C(CC2N)OC(OC2OC(CO)C(N)C(O)C2O)C(NC)C3O)C(O)C1O (stereo not drawn) [1-N-allylapramycin],zone of inhibition (bioautography),B. subtilis X12,good zone of inhibition
"CCNC1CC(N)C(OC2OC3C(CC2N)OC(OC2OC(CO)C(N)C(O)C2O)C(NC)C3O)C(O)C1O (stereo not drawn) [Test Compound 4, 1-N-ethylapramycin]",ED50,"[1]; mg/kg × 2 subcutaneous doses at 1 and 5 hours post infection, mice challenged with 68.1 LD50's, read-out: Effective Dose (ED50)",4.5 mg/kg
same,MIC,[2],16 µg/mL
same,MIC,Proteus morganii PR15,32 µg/mL
same,MIC,[3],8 µg/mL
same,MIC,[4],8 µg/mL
same,MIC,"[5]; Staphylococcus aureus X400, read-out: Minimum Inhibitory Concentration",16 µg/mL
same,MIC,"Serratia marcescens X99; Serratia marcescens X99, read-out: Minimum Inhibitory Concentration",64 µg/mL
same,MIC,Enterobacter cloacae EB5,32 µg/mL
same,MIC,[6],16 µg/mL
same,MIC,"[7]; Klebsiella aerogenes, Enterobacter aerogenes X68, read-out: Minimum Inhibitory Concentration",16 µg/mL
same,MIC,"Escherichia coli N10; Escherichia coli, N10, Escherichia coli N10, read-out: Minimum Inhibitory Concentration",16 µg/mL
same,MIC,[8],32 µg/mL
same,MIC,[9],32 µg/mL
same,MIC,[10],64 µg/mL
same,MIC,Escherichia coli EC14,32 µg/mL
same,MIC,Escherichia coli TEM,8 µg/mL
same,MIC,[11],8 µg/mL
same,MIC,[12],16 µg/mL
same,MIC,[13],16 µg/mL
same,MIC,"[14]; Haemophilus influenzae, read-out: Minimum Inhibitory Concentration",16 µg/mL
same,MIC,[15],32 µg/mL
same,MIC,[16],32 µg/mL
same,MIC,[17]; read-out: Minimum Inhibitory Concentration,8 µg/mL
same,MIC,Shigella sonnei N9,16 µg/mL
same,MIC,Proteus rettgeri C24,64 µg/mL
same,MIC,[18],> 128 µg/mL
same,MIC,Serratia marcescens SE3,> 128 µg/mL
same,MIC,[19],16 µg/mL
same,MIC,"Proteus rettgeri PR7; Providencia rettgeri, Proteus rettgeri PR7, read-out: Minimum Inhibitory Concentration",8 µg/mL
same,MIC,[20],8 µg/mL
same,MIC,[21],8 µg/mL
same,MIC,[22],4 µg/mL
same,MIC,"Hemophilus influenzae 76; Haemophilus influenzae, Hemophilus influenzae 76, read-out: Minimum Inhibitory Concentration",16 µg/mL
same,MIC,Proteus inconstans PR33,128 µg/mL
same,MIC,[23],> 128 µg/mL
same,MIC,[24],8 µg/mL
same,MIC,[25],16 µg/mL
same,Zone of Inhibition (diameter in mm),Escherichia coli X563; listed as 5,12.1 mm
same,zone of inhibition at 15 µg/disc,"Escherichia coli X563; Escherichia coli, X563, read-out: Zone of Inhibition (diameter in mm), 15 mcg/disc",11.3 mm
"CNC1C(OC2OC(CO)C(N)C(O)C2O)OC2CC(N)C(OC3C(N)CC(NC(=O)C(O)CCN)C(O)C3O)OC2C1O (stereo not drawn) [Test Compound 2, 1-N-(RS-γ-amino-α-hydroxybutyryl)apramycin]",Minimum Inhibitory Concentration,[5]; Staphylococcus aureus X400,64 µg/mL
same,Minimum Inhibitory Concentration,Serratia marcescens X99; Serratia marcescens X99,16 µg/mL
same,Minimum Inhibitory Concentration,[7]; Enterobacter aerogenes X68,16 µg/mL
same,Minimum Inhibitory Concentration,Escherichia coli N10; Escherichia coli N10,16 µg/mL
same,Minimum Inhibitory Concentration,[14],32 µg/mL
same,Minimum Inhibitory Concentration,[17],8 µg/mL
same,Minimum Inhibitory Concentration,Proteus rettgeri PR7; Proteus rettgeri PR7,4 µg/mL
same,Minimum Inhibitory Concentration,Hemophilus influenzae 76; Hemophilus influenzae 76,32 µg/mL
same,Zone of Inhibition (diameter in mm),Escherichia coli X563; listed as 2,12.5 mm and 13.6 mm
CNC1C(OC2OC(CO)C(N)C(O)C2O)OC2CC(N)C(OC3C(N)CC(NC(=O)C(O)CCN)C(O)C3O)OC2C1O (stereo not drawn),ED50,"[1]; read-out: Effective Dose (ED50), mg/kg × 2 subcutaneous doses at 1 and 5 hours post infection, mice challenged with 331 LD50's",7.1 mg/kg
CNC1C(OC2OC(CO)C(N)C(O)C2O)OC2CC(N)C(OC3C(N)CC(NCc4ccccc4)C(O)C3O)OC2C1O (stereo not drawn) [1-N-benzylapramycin],zone of inhibition (bioautography),B. subtilis X12,zone of inhibition
